Assay results taken from patent US8974815B2, “Fibrous membrane for biomedical application based on poly(ester-amide)s” (Cornell University, priority 2005, dated 2015).

Tests used:
[1] = Gallium nitrate release from 8P4 fabric (conductivity); assay type: physicochemical; settings: from 8P4 fabric at 1.2, 1.0 and 0.2 g gallium nitrate per g 8P4; water extraction
Protocol: In order to determine release profiles of gallium nitrate from the fabric, a calibration curve was prepared as follows: Solutions of known concentrations of gallium nitrate in chloroform (not completely dissolved) were extracted with 10-mL deionized water. The electrical resistance of the aqueous solutions from extraction was measured. A calibration curve was constructed based on conductivity (inverse of measured resistance) and known concentration of gallium nitrate.
Drug release was established at 1, 2, 3, 4, 5, 8, 12, 18 and 28 days by extraction with water and measuring conductivity and generating gallium nitrate release profiles for 1.2 grams of gallium nitrate per gram (8P4), 1.0 gram of gallium nitrate per gram (8P4) and 0.2 am of gallium nitrate per gram (8P4). In each case there was a burst of drug release within the first 5 days.

[2] = In vitro release of 4-amino-TEMPO in PBS medium (ESR); assay type: physicochemical
Protocol: (§1) The in vitro release of 4-amino-TEMPO nitroxyl radicals from electrospun PEA fibers was investigated by immersing ˜300 mg 8-Phe-4 electrospun nano fibrous mat into a glass vial filled with 5 mL of 0.1M phosphate buffer solution of pH=7.42. The 8-Phe-4 nano fibrous mat was pre-loaded with 4-amino-TEMPO at a 10.0 mg 4-amino-TEMPO per g 8-Phe-4 and electrospun from a 39% wt/vol 8-Phe-4 solution in the mixture solvent of chloroform and DMF at volume ratio of 2 to 1. The glass vial was then placed in a water bath shaker maintained at 37° C. and 100 cycles/min. 10 μl of supernant of the vial was taken at a determined time and the amount of 4-amino-TEMPO nitroxyl radicals was measured by electron spin resonance (ESR) as a function of incubation time.
(§2) Three samples were taken for each measurement and the average results were reported. The ESR spectra at X-band were obtained from a Bruker 200D SRC spectrometer operating at 9.6 GHz, using 100 KHz modulation. The ESR signal intensity which is proportional to the mass of 4-amino-TEMPO nitroxyl free radical was obtained by a double integration of the recorded first derivative signals. A linear correlation (γ^2=0.9996) between the ESR signal intensity and the mass of nitroxyl radical ranging from 1.67 μg to 0.05 μg was obtained. The actual amount of 4-amino-TEMPO nitroxyl radicals loaded into the electrospun fibers was also determined by a complete dissolution of 8-Phe-4/4-amino-TEMPO electrospun fibrous membranes in DMF and the actual pre-loaded 4-amino-TEMPO amount within 8-Phe-4 fibers was calculated from the established calibration curve. The nitroxyl radicals released was measured in triplicates and expressed in the percentage of the initial pre-loaded amounts in the 8-Phe-4 fibers.

α-chymotrypsin = α-chymotrypsin (Bos taurus, UniProt P00766); assay: In vitro release of 4-amino-TEMPO in α-chymotrypsin solution (ESR); assay type: in vitro ADME
Protocol: as §1, §2
4-amino-TEMPO was physically pre-loaded into the 640 nm 8-Phe-4 electrospun fibers at a loading level of 10.0 mg TEMPO per gram of 8-Phe-4. Since 4-amino-TEMPO is a free radical, the actual amounts of 4-amino-TEMPO loaded into the 8-Phe-4 electrospun nanofibers and its subsequently release from the fibers in either PBS buffer or a α-chymotrypsin solution (0.1 mg/mL α-chymotrypsin) were quantified by ESR.

Row | Compound | period of burst of drug release [1] | slope of the initial linear part of the release profile ([2]; PBS medium alone, 37° C.) | 4-amino-TEMPO still entrapped inside the 8-Phe-4 matrix ([2]; after one month in PBS) | initial burst release, of total loaded nitroxyl radical ([2]; first day, from 640 nm 8-Phe-4 nanofibers, pH 7.42 PBS, 37° C.) | residual nitroxyl radical in dissolved incubated membrane, of initial loading level ([2]; one-month incubated membrane dissolved in DMF, ESR) | release slope in α-chymotrypsin relative to PBS alone (α-chymotrypsin) | slope of the initial linear part of the release profile (α-chymotrypsin; 0.1 mg/mL α-chymotrypsin solution, 37° C.) | incorporated TEMPO released (α-chymotrypsin; within the 1st hr, α-chymotrypsin solution) | time to complete release (α-chymotrypsin; α-chymotrypsin solution)
1 | O=[N+]([O-])[O-].O=[N+]([O-])[O-].O=[N+]([O-])[O-].[Ga+3] [gallium nitrate, Gallium (III) nitrate hydrate] | ≤ 5 days |  |  |  |  |  |  |  | 
2 | CC1(C)CC(N)CC(C)(C)N1[O] [4-amino-TEMPO, 4-amino-2,2,6,6-tetramethylpiperadine-1-oxy radical] |  | 2.0 %/day | more than 60% | about 14% | about 58% | more than 35 times | 72 %/day | more than 23% | ≤ 120 h
